The text below walks through data of BindingDB's records for doi:10.1021/acschembio.6b00782 (University of Michigan, 2017).

The target in assay [1] is T1, Paired box protein Pax-2 [1-81] (Human, UniProt Q02962).
T1 construct: 1-81
As to the kind of experiment: Biolayer Interferometry Binding Assay. On the procedure: After biotinylation, the protein was bound to saturation to the biosensor of an Octet RED Multichannel platform (ForteBio). All binding and equilibration was done in PBS with 0.1% DMSO. For binding to the compound, sensors were incubated for 300s in EG1 at the following concentrations: 0.5, 1, 2, 4, 8, 16, 31, 62, 125, and 250 μM. Disassociation was then measured for 350 s in PBS to determine affinity constants. Kd is calculated from Kon and Koff.

In assay [2] the target is T1, Paired box protein Pax-2 [1-81]. Kind of assay: Biolayer Interferometry Binding Assay. On the procedure:
After biotinylation, the protein was bound to saturation to the biosensor of an Octet RED Multichannel platform (ForteBio). All binding and equilibration was done in PBS with 0.1% DMSO. For binding to the compound, sensors were incubated for 300s in EG1 at the following concentrations: 0.5, 1, 2, 4, 8, 16, 31, 62, 125, and 250 μM. Disassociation was then measured for 350 s in PBS to determine affinity constants. Kd is calculated from steady state analysis.
The source holds these as a separate data set. (Biolayer interferometry detects binding as a change in optical thickness at a sensor tip.)

pKd: −log10 of the molar value.

T1 sequence (Q02962 1-81): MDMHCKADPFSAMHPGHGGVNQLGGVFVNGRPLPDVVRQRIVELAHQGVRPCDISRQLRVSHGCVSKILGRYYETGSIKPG

For orientation: pKd means −log10 of the Kd, conventionally taken in molar units. Take `COc1ccccc1C(=O)Nc1ccc(C(=O)Nc2ccccc2C(=O)O)cc1` [EG1]: the pKd in assay [1] is 5.87; in assay [2], 5.82.
